Patent US11389569B2, “Biodegradable, porous, thermally responsive injectable hydrogel as soft tissue defect filler” (University of Pittsburgh—Of the Commonwealth System of …, priority 2017, dated 2022)

What was measured:
SMCs = assay: Cytotoxicity and proliferation of SMCs (mitochondrial activity assay); format: cell-based; details: dissolved mannitol
[1] = Mannitol particle size, initially and after mixing with VP10 hydrogel solution; format: physicochemical
Excerpt: All chemicals were purchased from Sigma-Aldrich unless otherwise stated. N-isopropylacrylamide (NIPAAm) was purified by recrystallization from hexane and vacuum-dried. 2-Hydroxyethyl methacrylate (HEMA) was purified by vacuum distillation. Vinylpyrrolidone (VP), lactide, benzoyl peroxide (BPO), sodium methoxide (NaOCH3), methacryloyl chloride, methacrylic acid (MAA) and other solvents were used as received. D-mannitol particles were sieved to obtain the portion between 170 and 230 meshes.

For `OC[C@@H](O)[C@@H](O)[C@H](O)[C@H](O)CO` [mannitol, D-mannitol], the “concentration up to which no cytotoxicity was shown” value (SMCs) was “up to 100 mM”, the “particle size change after mixing with hydrogel solution” value ([1]; mixed with VP10 hydrogel solution for 10 min) was “did not decrease significantly” and the “initial size of sieved mannitol particles” value ([1]; sieved, 170-230 mesh) was 68.0 μm.
